{
  "source": "ChEMBL document CHEMBL1687756",
  "about": "(Antimicrob Agents Chemother, 2010)",
  "key": {"[1]": {"assay": "Plasma concentration in male Beagle dog at 400 mg/kg, sc after 1 month", "type": "ADME, organism-based, Canis lupus familiaris", "design": "dose 400 mg/kg, route subcutaneous"}, "[2]": {"assay": "Drug level in male Beagle dog spleen at 400 mg/kg, sc after 1 month", "type": "ADME, organism-based, Canis lupus familiaris", "design": "dose 400 mg/kg, route subcutaneous", "details": "read-out: Drug uptake"}, "[3]": {"assay": "Cmax in male dog at 200 mg, sc after 85 days", "details": "in vivo"}, "[4]": {"assay": "Ratio of drug level in spleen to plasma in male Beagle dog at 200 mg/kg administered intramuscularly after 1 month", "type": "ADME, organism-based, Canis lupus familiaris", "design": "dose 200 mg/kg, route intramuscular", "details": "im"}, "[5]": {"assay": "Ratio of drug level in lymph node popliteal to plasma in Beagle dog at 5 mg/kg administered intramuscularly after 1 month", "type": "ADME, organism-based, Canis lupus familiaris", "design": "dose 5 mg/kg, route intramuscular", "details": "im"}, "[6]": {"assay": "Drug level in Beagle dog skin at non-injected site at 5 mg/kg, sc after 3 months", "type": "ADME, organism-based, Canis lupus familiaris, Zone of skin", "design": "dose 5 mg/kg, route subcutaneous", "details": "read-out: Drug uptake"}, "[7]": {"assay": "Plasma concentration in Beagle dog at 5 mg/kg, sc after 6 months", "type": "ADME, organism-based, Canis lupus familiaris", "design": "dose 5 mg/kg, route subcutaneous"}, "[8]": {"assay": "Drug level in female Beagle dog spleen at 400 mg/kg administered intramuscularly after 3 months", "type": "ADME, organism-based, Canis lupus familiaris", "design": "dose 400 mg/kg, route intramuscular", "details": "im, read-out: Drug uptake"}, "[9]": {"assay": "Drug level in male Beagle dog thymus at 400 mg/kg administered intramuscularly after 1 month", "type": "ADME, organism-based, Canis lupus familiaris", "design": "dose 400 mg/kg, route intramuscular", "details": "im, read-out: Drug uptake"}, "[10]": {"assay": "AUC (0 to last) in female dog at 200 mg, sc after 29 days", "details": "plasma"}, "[11]": {"assay": "Ratio of drug level in lymph node axillar to plasma in Beagle dog at 5 mg/kg, sc after 3 months", "type": "ADME, organism-based, Canis lupus familiaris", "design": "dose 5 mg/kg, route subcutaneous", "details": "axillary lymph node/plasma"}, "[12]": {"assay": "Ratio of drug level in lymph node mandibular to plasma in Beagle dog at 5 mg/kg, sc after 3 months", "type": "ADME, organism-based, Canis lupus familiaris", "design": "dose 5 mg/kg, route subcutaneous"}, "[13]": {"assay": "Plasma concentration in Beagle dog at 5 mg/kg, sc after 1 month", "type": "ADME, organism-based, Canis lupus familiaris", "design": "dose 5 mg/kg, route subcutaneous"}, "[14]": {"assay": "Drug level in female Beagle dog thymus at 400 mg/kg, sc after 3 months", "type": "ADME, organism-based, Canis lupus familiaris", "design": "dose 400 mg/kg, route subcutaneous", "details": "read-out: Drug uptake"}, "[15]": {"assay": "Ratio of drug level in spleen to plasma in male Beagle dog at 400 mg/kg administered intramuscularly after 3 months", "type": "ADME, organism-based, Canis lupus familiaris", "design": "dose 400 mg/kg, route intramuscular", "details": "im"}, "[16]": {"assay": "Drug level in female Beagle dog thymus at 200 mg/kg, sc after 1 month", "type": "ADME, organism-based, Canis lupus familiaris", "design": "dose 200 mg/kg, route subcutaneous", "details": "read-out: Drug uptake"}, "[17]": {"assay": "Drug level in Beagle dog lymph node popliteal at 5 mg/kg, sc after 1 month", "type": "ADME, organism-based, Canis lupus familiaris", "design": "dose 5 mg/kg, route subcutaneous", "details": "read-out: Drug uptake"}, "[18]": {"assay": "Drug level in Beagle dog lymph node iliac at 5 mg/kg administered intramuscularly after 3 months", "type": "ADME, organism-based, Canis lupus familiaris", "design": "dose 5 mg/kg, route intramuscular", "details": "im, read-out: Drug uptake"}, "[19]": {"assay": "Plasma concentration in female Beagle dog at 400 mg/kg administered intramuscularly after 3 months", "type": "ADME, organism-based, Canis lupus familiaris", "design": "dose 400 mg/kg, route intramuscular", "details": "im"}, "[20]": {"assay": "Drug level in Beagle dog lymph node iliac at 5 mg/kg administered intramuscularly after 1 month", "type": "ADME, organism-based, Canis lupus familiaris", "design": "dose 5 mg/kg, route intramuscular", "details": "im, read-out: Drug uptake"}, "[21]": {"assay": "Drug level in Beagle dog lymph node iliac at 5 mg/kg, sc after 3 months", "type": "ADME, organism-based, Canis lupus familiaris", "design": "dose 5 mg/kg, route subcutaneous", "details": "read-out: Drug uptake"}, "[22]": {"assay": "Drug level in male Beagle dog thymus at 200 mg/kg administered intramuscularly after 3 months", "type": "ADME, organism-based, Canis lupus familiaris", "design": "dose 200 mg/kg, route intramuscular", "details": "im, read-out: Drug uptake"}, "[23]": {"assay": "Plasma concentration in male Beagle dog at 400 mg/kg administered intramuscularly after 3 months", "type": "ADME, organism-based, Canis lupus familiaris", "design": "dose 400 mg/kg, route intramuscular", "details": "im"}, "[24]": {"assay": "Drug level in male Beagle dog spleen at 200 mg/kg administered intramuscularly after 3 months", "type": "ADME, organism-based, Canis lupus familiaris", "design": "dose 200 mg/kg, route intramuscular", "details": "im, read-out: Drug uptake"}, "Canis familiaris": {"tested_on": "Canis familiaris", "assay": "Toxicity in Beagle dog assessed as inflammatory signs at 20 mg/kg administered intramuscularly after 3 months", "type": "organism-based, Canis lupus familiaris", "design": "dose 20 mg/kg, route intramuscular", "details": "in vivo, im, 2191.5 h"}, "[25]": {"assay": "Ratio of drug level in spleen to plasma in female Beagle dog at 200 mg/kg administered intramuscularly after 3 months", "type": "ADME, organism-based, Canis lupus familiaris", "design": "dose 200 mg/kg, route intramuscular", "details": "im"}, "[26]": {"assay": "Cmax in Beagle dog at 5 mg/kg, sc after 176 days", "type": "ADME, organism-based, Canis lupus familiaris", "design": "dose 5 mg/kg, route subcutaneous", "details": "in vivo"}, "[27]": {"assay": "Drug level in male Beagle dog spleen at 200 mg/kg administered intramuscularly after 1 month", "type": "ADME, organism-based, Canis lupus familiaris", "design": "dose 200 mg/kg, route intramuscular", "details": "im, read-out: Drug uptake"}, "[28]": {"assay": "Drug level in Beagle dog skin at injected site at 5 mg/kg, sc after 3 months", "type": "ADME, organism-based, Canis lupus familiaris, Zone of skin", "design": "dose 5 mg/kg, route subcutaneous", "details": "read-out: Drug uptake"}},
  "data": [
    {"molecule": "Cc1cc(/C=C/C#N)cc(C)c1Nc1ccnc(Nc2ccc(C#N)cc2)n1", "note": "[RILPIVIRINE]", "values": [
      {"measurement": "concentration at 730.5 h", "setting": "[1]", "value": 209, "unit": "ng/mL"},
      {"measurement": "concentration at 730.5 h", "setting": "[2]", "value": 569, "unit": "ng/g"},
      {"measurement": "Cmax", "setting": "[3]", "value": 107, "unit": "ng/mL"},
      {"measurement": "Kp at 730.5 h", "setting": "[4]", "value": 1.8},
      {"measurement": "Kp at 730.5 h", "setting": "[5]", "value": 574},
      {"measurement": "concentration at 2191.5 h", "setting": "[6]", "value": 24.2, "unit": "ng/g"},
      {"measurement": "concentration at 4383 h", "setting": "[7]", "value": 1.3, "unit": "ng/mL"},
      {"measurement": "concentration at 2191.5 h", "setting": "[8]", "value": 46.1, "unit": "ng/g"},
      {"measurement": "concentration at 730.5 h", "setting": "[9]", "value": 634, "unit": "ng/g"},
      {"measurement": "AUC(0-t) at 696 h", "setting": "[10]", "value": 70600, "unit": "ng·h/mL"},
      {"measurement": "Kp at 2191.5 h", "setting": "[11]", "value": 6.8},
      {"measurement": "Kp at 2191.5 h", "setting": "[12]", "value": 4},
      {"measurement": "concentration at 730.5 h", "setting": "[13]", "value": 16.8, "unit": "ng/mL"},
      {"measurement": "concentration at 2191.5 h", "setting": "[14]", "value": 101, "unit": "ng/g"},
      {"measurement": "Kp at 2191.5 h", "setting": "[15]", "value": 2.9},
      {"measurement": "concentration at 730.5 h", "setting": "[16]", "value": 536, "unit": "ng/g"},
      {"measurement": "concentration at 730.5 h", "setting": "[17]", "value": 68.2, "unit": "ng/g"},
      {"measurement": "concentration at 2191.5 h", "setting": "[18]", "value": 15.3, "unit": "ng/g"},
      {"measurement": "concentration at 2191.5 h", "setting": "[19]", "value": 20.3, "unit": "ng/mL"},
      {"measurement": "concentration at 730.5 h", "setting": "[20]", "value": 19000, "unit": "ng/g"},
      {"measurement": "concentration at 2191.5 h", "setting": "[21]", "value": 16.9, "unit": "ng/g"},
      {"measurement": "concentration at 2191.5 h", "setting": "[22]", "value": 34.4, "unit": "ng/g"},
      {"measurement": "concentration at 2191.5 h", "setting": "[23]", "value": 22.1, "unit": "ng/mL"},
      {"measurement": "concentration at 2191.5 h", "setting": "[24]", "value": 23.8, "unit": "ng/g"},
      {"measurement": "Activity", "setting": "Canis familiaris", "value": "Non-toxic"},
      {"measurement": "Kp at 2191.5 h", "setting": "[25]", "value": 2.2},
      {"measurement": "Cmax", "setting": "[26]", "value": 31.4, "unit": "ng/mL"},
      {"measurement": "concentration at 730.5 h", "setting": "[27]", "value": 133, "unit": "ng/g"},
      {"measurement": "concentration at 2191.5 h", "setting": "[28]", "value": 223000, "unit": "ng/g"}
    ]}
  ]
}
